{"source": "paper PMC5218480", "about": "(PLoS ONE, 2017)", "tested_on": "MV-4-11 cells", "experiment": "Gene expression microarray analysis (Affymetrix PrimeView) and GSEA", "format": "cell-based, human", "parameters": "RFU PODN (11730768_x_at) / Fold change /veh PODN (11730768_x_at) / RFU LINC00158 (11744669_a_at) / Fold change /veh LINC00158 (11744669_a_at) / RFU DUSP10 (11751237_a_at) / Fold change /veh DUSP10 (11751237_a_at) / RFU ID3 (11757404_x_at) / Fold change /veh ID3 (11757404_x_at) / RFU PLEKHG5 (11737974_s_at) / Fold change /veh PLEKHG5 (11737974_s_at) / RFU LRRC4B (11730491_at) / Fold change /veh LRRC4B (11730491_at) / RFU GIMAP4 (11747438_a_at) / Fold change /veh GIMAP4 (11747438_a_at) / RFU KRT8 (11758183_x_at) / Fold change /veh KRT8 (11758183_x_at) / RFU CNN1 (11734310_a_at) / Fold change /veh CNN1 (11734310_a_at) / RFU VPS37D (11726825_at) / Fold change /veh VPS37D (11726825_at) / RFU C10orf10 (11716522_x_at) / Fold change /veh C10orf10 (11716522_x_at) / RFU KIR2DL2 /// KIR2DL4 /// KIR2DL5A /// KIR2DL5B /// KIR2DS1 /// KIR2DS2 /// KIR2DS3 /// KIR2DS4 /// KIR3DL3 /// KIR3DL3 /// KIR3DS1 (11738374_at) / Fold change /veh KIR2DL2 /// KIR2DL4 /// KIR2DL5A /// KIR2DL5B /// KIR2DS1 /// KIR2DS2 /// KIR2DS3 /// KIR2DS4 /// KIR3DL3 /// KIR3DL3 /// KIR3DS1 (11738374_at) / RFU C1QL1 (11718748_at) / Fold change /veh C1QL1 (11718748_at) / RFU TMPRSS4 (11747572_a_at) / Fold change /veh TMPRSS4 (11747572_a_at) / RFU HAMP (11756126_x_at) / Fold change /veh HAMP (11756126_x_at) / RFU RNFT2 (11725882_a_at) / Fold change /veh RNFT2 (11725882_a_at) / RFU NR4A2 (11747474_a_at) / Fold change /veh NR4A2 (11747474_a_at) / RFU ABCC12 (11746883_a_at) / Fold change /veh ABCC12 (11746883_a_at) / RFU TMEM136 (11760407_x_at) / Fold change /veh TMEM136 (11760407_x_at) / RFU CLDN22 /// WWC2 (11732394_at) / Fold change /veh CLDN22 /// WWC2 (11732394_at) / RFU HLA-DPB1 (11760878_x_at) / Fold change /veh HLA-DPB1 (11760878_x_at) / RFU SPINT1 (11716480_a_at) / Fold change /veh SPINT1 (11716480_a_at) / RFU GAP43 (11754022_s_at) / Fold change /veh GAP43 (11754022_s_at) / RFU A4GNT (11735810_at) / Fold change /veh A4GNT (11735810_at) / RFU PRB3 (11715151_x_at) / Fold change /veh PRB3 (11715151_x_at) / RFU TUBB4B (11761932_at) / Fold change /veh TUBB4B (11761932_at) / RFU CAPN14 (11732068_a_at) / Fold change /veh CAPN14 (11732068_a_at) / RFU TMCC2 (11721928_a_at) / Fold change /veh TMCC2 (11721928_a_at) / RFU IRGQ (11745062_a_at) / Fold change /veh IRGQ (11745062_a_at) / RFU FAM174B (11720279_a_at) / Fold change /veh FAM174B (11720279_a_at) / RFU TMPRSS4 (11748680_a_at) / Fold change /veh TMPRSS4 (11748680_a_at) / RFU FAM212B (11763350_a_at) / Fold change /veh FAM212B (11763350_a_at) / RFU PLEKHG5 (11743358_a_at) / Fold change /veh PLEKHG5 (11743358_a_at) / RFU ZSCAN30 (11745921_a_at) / Fold change /veh ZSCAN30 (11745921_a_at) / RFU CMKLR1 (11741424_a_at) / Fold change /veh CMKLR1 (11741424_a_at) / RFU LOC101060620 /// MAPK8IP1 (11723275_at) / Fold change /veh LOC101060620 /// MAPK8IP1 (11723275_at) / RFU SPTSSB (11747773_x_at) / Fold change /veh SPTSSB (11747773_x_at) / RFU PRSS12 (11739890_at) / Fold change /veh PRSS12 (11739890_at) / RFU BIN1 (11741810_x_at) / Fold change /veh BIN1 (11741810_x_at) / RFU WNT11 (11732464_a_at) / Fold change /veh WNT11 (11732464_a_at) / RFU C10orf10 (11716521_a_at) / Fold change /veh C10orf10 (11716521_a_at) / RFU C5orf56 (11738089_at) / Fold change /veh C5orf56 (11738089_at) / RFU CYB561 (11721691_x_at) / Fold change /veh CYB561 (11721691_x_at) / RFU ANKRD19P (11752326_a_at) / Fold change /veh ANKRD19P (11752326_a_at) / RFU OR2T12 /// OR2T33 /// OR2T8 (11738714_s_at) / Fold change /veh OR2T12 /// OR2T33 /// OR2T8 (11738714_s_at) / RFU VCAN (11748164_a_at) / Fold change /veh VCAN (11748164_a_at) / RFU JSRP1 (11732532_at) / Fold change /veh JSRP1 (11732532_at) / RFU KRTAP10-11 (11738290_x_at) / Fold change /veh KRTAP10-11 (11738290_x_at) / RFU MYO3A (11730013_a_at) / Fold change /veh MYO3A (11730013_a_at) / RFU EBF3 (11725865_a_at) / Fold change /veh EBF3 (11725865_a_at) / RFU CAMK2N1 (11719241_x_at) / Fold change /veh CAMK2N1 (11719241_x_at) / RFU C5orf56 (11738088_a_at) / Fold change /veh C5orf56 (11738088_a_at) / RFU OLFML3 (11715873_a_at) / Fold change /veh OLFML3 (11715873_a_at) / RFU LOC100653217 /// NTM (11731650_a_at) / Fold change /veh LOC100653217 /// NTM (11731650_a_at) / RFU MAPK11 (11762145_a_at) / Fold change /veh MAPK11 (11762145_a_at) / RFU FIZ1 (11724087_x_at) / Fold change /veh FIZ1 (11724087_x_at) / RFU OASL (11726364_x_at) / Fold change /veh OASL (11726364_x_at) / RFU SOX15 (11748057_x_at) / Fold change /veh SOX15 (11748057_x_at) / RFU CD79A (11719716_a_at) / Fold change /veh CD79A (11719716_a_at) / RFU HIST1H1D (11736915_at) / Fold change /veh HIST1H1D (11736915_at) / RFU CASKIN2 (11723855_a_at) / Fold change /veh CASKIN2 (11723855_a_at) / RFU LOC730098 (11760151_x_at) / Fold change /veh LOC730098 (11760151_x_at) / RFU OR4N2 (11742367_at) / Fold change /veh OR4N2 (11742367_at) / RFU PRRT2 (11749266_a_at) / Fold change /veh PRRT2 (11749266_a_at) / RFU SNX32 (11753110_a_at) / Fold change /veh SNX32 (11753110_a_at) / RFU CDHR5 (11726645_a_at) / Fold change /veh CDHR5 (11726645_a_at) / RFU RCAN1 (11760418_a_at) / Fold change /veh RCAN1 (11760418_a_at) / RFU FAM167A (11723789_a_at) / Fold change /veh FAM167A (11723789_a_at) / RFU FAM26E (11764081_at) / Fold change /veh FAM26E (11764081_at) / RFU ISYNA1 (11749810_s_at) / Fold change /veh ISYNA1 (11749810_s_at) / RFU ACY1 (11761880_at) / Fold change /veh ACY1 (11761880_at) / RFU 11764098_at / Fold change /veh 11764098_at / RFU SAMD14 (11745864_x_at) / Fold change /veh SAMD14 (11745864_x_at) / RFU NPB (11741838_a_at) / Fold change /veh NPB (11741838_a_at) / RFU TMPRSS6 (11731388_a_at) / Fold change /veh TMPRSS6 (11731388_a_at) / RFU KRTAP10-2 (11738614_at) / Fold change /veh KRTAP10-2 (11738614_at) / RFU ARHGAP8 /// PRR5-ARHGAP8 (11727945_x_at) / Fold change /veh ARHGAP8 /// PRR5-ARHGAP8 (11727945_x_at) / RFU KRTAP5-7 /// NADSYN1 (11734609_at) / Fold change /veh KRTAP5-7 /// NADSYN1 (11734609_at) / RFU RASL12 (11751679_a_at) / Fold change /veh RASL12 (11751679_a_at) / RFU CDKN2B (11736163_a_at) / Fold change /veh CDKN2B (11736163_a_at) / RFU PRF1 (11729649_at) / Fold change /veh PRF1 (11729649_at) / RFU, ZNF638 /// ZNF638-IT1 / Fold change vs veh, ZNF638 /// ZNF638-IT1 / RFU, PANK3 / Fold change vs veh, PANK3 / RFU, SH3YL1 / Fold change vs veh, SH3YL1 / RFU, ZEB2 / Fold change vs veh, ZEB2 / RFU, NRIP1 / Fold change vs veh, NRIP1 / RFU, PTTG1IP / Fold change vs veh, PTTG1IP / RFU, CAPN2 / Fold change vs veh, CAPN2 / RFU, MED14 / Fold change vs veh, MED14 / RFU, SNORA58 / Fold change vs veh, SNORA58 / RFU, C1orf63 / Fold change vs veh, C1orf63 / RFU, LRRFIP1 / Fold change vs veh, LRRFIP1 / RFU, NDUFAF7 / Fold change vs veh, NDUFAF7 / RFU, SLC12A2 / Fold change vs veh, SLC12A2 / RFU, IBTK / Fold change vs veh, IBTK / RFU, ESF1 / Fold change vs veh, ESF1 / Fold change vs veh, TMEM50B / RFU, TAOK1 / Fold change vs veh, TAOK1 / RFU, ACBD3 / Fold change vs veh, ACBD3 / RFU, TMA16 / Fold change vs veh, TMA16 / RFU, RWDD3 / Fold change vs veh, RWDD3 / RFU, BCAT1 / Fold change vs veh, BCAT1 / RFU, EDEM3 / Fold change vs veh, EDEM3 / RFU, TMEM33 / Fold change vs veh, TMEM33 / RFU, WDR75 / Fold change vs veh, WDR75 / RFU, AHCTF1 / Fold change vs veh, AHCTF1 / RFU, TFRC / Fold change vs veh, TFRC / RFU, ZDHHC17 / Fold change vs veh, ZDHHC17 / RFU, NOM1 / Fold change vs veh, NOM1 / RFU, ARL8B / Fold change vs veh, ARL8B / RFU, ZBTB11 / Fold change vs veh, ZBTB11 / RFU, TAMM41 / Fold change vs veh, TAMM41 / RFU, KIAA1704 /// LOC100996395 / Fold change vs veh, KIAA1704 /// LOC100996395 / RFU, ING1 / Fold change vs veh, ING1 / RFU, TRMT61B / Fold change vs veh, TRMT61B / RFU, FUBP3 / Fold change vs veh, FUBP3 / RFU, TP53 / Fold change vs veh, TP53 / RFU, TNKS2 / Fold change vs veh, TNKS2 / RFU, ZFP14 / Fold change vs veh, ZFP14 / RFU, ACTR2 / Fold change vs veh, ACTR2 / RFU, PPP3R1 / Fold change vs veh, PPP3R1 / RFU, PIK3R1 / Fold change vs veh, PIK3R1 / RFU, HNRNPA1 / Fold change vs veh, HNRNPA1 / RFU, RNF170 / Fold change vs veh, RNF170 / RFU, ZNF28 / Fold change vs veh, ZNF28 / RFU, RNGTT / Fold change vs veh, RNGTT / RFU, OGT / Fold change vs veh, OGT / RFU, BRD1 / Fold change vs veh, BRD1 / RFU, MARS / Fold change vs veh, MARS / RFU, ZNF655 / Fold change vs veh, ZNF655 / RFU, FAHD1 / Fold change vs veh, FAHD1 / RFU, BDP1 / Fold change vs veh, BDP1 / RFU, LRRCC1 / Fold change vs veh, LRRCC1 / RFU, ARID1A / Fold change vs veh, ARID1A / RFU, ZNF146 / Fold change vs veh, ZNF146 / RFU, ZNF330 / Fold change vs veh, ZNF330 / RFU, GPN3 / Fold change vs veh, GPN3 / RFU, C9orf123 / Fold change vs veh, C9orf123 / RFU, N4BP2L2 / Fold change vs veh, N4BP2L2 / RFU, ARFIP1 / Fold change vs veh, ARFIP1 / RFU, FAM179B / Fold change vs veh, FAM179B / RFU, BCL10 / Fold change vs veh, BCL10 / RFU, UHRF1BP1L / Fold change vs veh, UHRF1BP1L / RFU, BET1 / Fold change vs veh, BET1 / RFU, CNOT2 / Fold change vs veh, CNOT2 / RFU, ZNF268 / Fold change vs veh, ZNF268 / Fold change vs veh, ZNF507 / RFU, DGCR2 / Fold change vs veh, DGCR2 / RFU, WDSUB1 / Fold change vs veh, WDSUB1 / Fold change vs veh, HSP90B1 /// MIR3652 / RFU, ADSS / Fold change vs veh, ADSS / RFU, GK / Fold change vs veh, GK / RFU, ZNF148 / Fold change vs veh, ZNF148 / RFU, TAF9 / Fold change vs veh, TAF9 / RFU, SLC1A5 / Fold change vs veh, SLC1A5 / RFU, SLMO2 / Fold change vs veh, SLMO2 / RFU, ABCC4 / Fold change vs veh, ABCC4 / RFU, LOC101060439 /// RAP1B / Fold change vs veh, LOC101060439 /// RAP1B / RFU, RFX7 / Fold change vs veh, RFX7 / RFU, GTPBP10 / Fold change vs veh, GTPBP10 / RFU, CNEP1R1 / Fold change vs veh, CNEP1R1 / RFU, BIVM-ERCC5 /// ERCC5 / Fold change vs veh, BIVM-ERCC5 /// ERCC5 / RFU, ILF3 / Fold change vs veh, ILF3 / RFU 11762660_at / Fold change /veh 11762660_at / RFU VCAN (11757783_s_at) / Fold change /veh VCAN (11757783_s_at) / RFU DDX43 (11728927_at) / Fold change /veh DDX43 (11728927_at) / RFU KRT8 (11758188_x_at) / Fold change /veh KRT8 (11758188_x_at) / RFU NKD1 (11759106_at) / Fold change /veh NKD1 (11759106_at) / RFU SRD5A1 (11742802_a_at) / Fold change /veh SRD5A1 (11742802_a_at) / RFU TPSAB1 /// TPSB2 (11721975_s_at) / Fold change /veh TPSAB1 /// TPSB2 (11721975_s_at) / RFU GSTM3 (11746129_a_at) / Fold change /veh GSTM3 (11746129_a_at) / RFU IL23R (11737362_x_at) / Fold change /veh IL23R (11737362_x_at) / RFU TMEM51 (11727254_a_at) / Fold change /veh TMEM51 (11727254_a_at) / RFU PIWIL2 (11732686_x_at) / Fold change /veh PIWIL2 (11732686_x_at) / RFU ORM1 (11744905_x_at) / Fold change /veh ORM1 (11744905_x_at) / RFU CCDC152 (11743942_at) / Fold change /veh CCDC152 (11743942_at) / RFU ECM1 (11717891_a_at) / Fold change /veh ECM1 (11717891_a_at) / RFU IL23R (11748794_a_at) / Fold change /veh IL23R (11748794_a_at) / RFU TNFAIP8L3 (11732012_x_at) / Fold change /veh TNFAIP8L3 (11732012_x_at) / RFU MBOAT4 (11741988_at) / Fold change /veh MBOAT4 (11741988_at) / RFU 11764193_at / Fold change /veh 11764193_at / RFU TMEM53 (11763286_at) / Fold change /veh TMEM53 (11763286_at) / RFU MAGEB2 (11727129_at) / Fold change /veh MAGEB2 (11727129_at) / RFU TMEM200A (11744735_a_at) / Fold change /veh TMEM200A (11744735_a_at) / RFU CCDC152 (11751479_a_at) / Fold change /veh CCDC152 (11751479_a_at) / RFU FAM211A (11726209_a_at) / Fold change /veh FAM211A (11726209_a_at) / RFU RGS16 (11746705_a_at) / Fold change /veh RGS16 (11746705_a_at) / RFU VCAN (11755009_s_at) / Fold change /veh VCAN (11755009_s_at) / RFU RHOB (11743442_s_at) / Fold change /veh RHOB (11743442_s_at) / RFU RGS16 (11720943_a_at) / Fold change /veh RGS16 (11720943_a_at) / RFU RGS16 (11720944_at) / Fold change /veh RGS16 (11720944_at) / RFU, VPS4B / Fold change vs veh, VPS4B / RFU, CREB1 / Fold change vs veh, CREB1 / RFU, DNAJC13 / Fold change vs veh, DNAJC13 / RFU, GNAQ / Fold change vs veh, GNAQ / RFU, CDK5R1 / Fold change vs veh, CDK5R1 / RFU, ZRANB3 / Fold change vs veh, ZRANB3 / RFU, CUL4A / Fold change vs veh, CUL4A / RFU, CCNY / Fold change vs veh, CCNY / RFU, UFL1 / Fold change vs veh, UFL1 / RFU, COG3 / Fold change vs veh, COG3 / RFU, DIAPH2 / Fold change vs veh, DIAPH2 / RFU, SKA2 / Fold change vs veh, SKA2 / RFU, AFF3 / Fold change vs veh, AFF3 / RFU, LMF1 / Fold change vs veh, LMF1 / RFU, IPO11 / Fold change vs veh, IPO11 / RFU, DFFB / Fold change vs veh, DFFB / RFU, FOXP1 / Fold change vs veh, FOXP1 / RFU, CARD8 / Fold change vs veh, CARD8 / RFU, STRN3 / Fold change vs veh, STRN3 / RFU, ADK / Fold change vs veh, ADK / RFU, RASSF2 / Fold change vs veh, RASSF2 / RFU, WIPF1 / Fold change vs veh, WIPF1 / RFU, LARP1B / Fold change vs veh, LARP1B / RFU, RASA1 / Fold change vs veh, RASA1 / RFU, RB1 / Fold change vs veh, RB1 / RFU, PPFIA1 / Fold change vs veh, PPFIA1 / RFU, MAT2A / Fold change vs veh, MAT2A / RFU, CCT5 / Fold change vs veh, CCT5 / RFU, WDR92 / Fold change vs veh, WDR92 / RFU, CUX1 / Fold change vs veh, CUX1 / RFU, TTC7A / Fold change vs veh, TTC7A / RFU, TMEM135 / Fold change vs veh, TMEM135 / RFU, DEPTOR / Fold change vs veh, DEPTOR / RFU, CPM / Fold change vs veh, CPM / RFU, DNAJB6 / Fold change vs veh, DNAJB6 / RFU, CACNA2D3 / Fold change vs veh, CACNA2D3 / RFU, DTX4 / Fold change vs veh, DTX4 / RFU, TFCP2 / Fold change vs veh, TFCP2 / RFU, GMCL1 /// GMCL1P1 / Fold change vs veh, GMCL1 /// GMCL1P1 / RFU, AEBP2 / Fold change vs veh, AEBP2 / RFU, SNHG1 /// SNORD22 /// SNORD25 /// SNORD26 /// SNORD27 /// SNORD28 /// SNORD29 /// SNORD31 / Fold change vs veh, SNHG1 /// SNORD22 /// SNORD25 /// SNORD26 /// SNORD27 /// SNORD28 /// SNORD29 /// SNORD31 / Fold change (Aza/veh), C12orf56 (ProbeSet 11735607_a_at) / Fold change (ACY-1035/veh), C12orf56 (ProbeSet 11735607_a_at) / Fold change (Aza/veh), FGFR1OP (ProbeSet 11751329_s_at) / Fold change (ACY-1035/veh), FGFR1OP (ProbeSet 11751329_s_at) / Fold change (Aza/veh), VPS36 (ProbeSet 11739960_a_at) / Fold change (ACY-1035/veh), VPS36 (ProbeSet 11739960_a_at) / RFU SYPL1 (11715823_x_at) / Fold change /veh SYPL1 (11715823_x_at) / RFU IGFBP7 (11715501_s_at) / Fold change /veh IGFBP7 (11715501_s_at) / RFU REEP3 (11722064_at) / Fold change /veh REEP3 (11722064_at) / RFU IGLL1 (11728026_x_at) / Fold change /veh IGLL1 (11728026_x_at): dose or concentration left out as unconfirmed", "conditions": "ProbeSet 11747937_a_at; LIST D", "data": [{"smiles": "Nc1ccc(-c2cccs2)cc1NC(=O)c1ccc2c(c1)cc(C1CC1)n2CCN1CCOCC1", "note": "[ACY-1035]", "values": [{"measurement": "Fold change vs veh, DNAJB6", "result": 0.86}]}]}
